Read-outs that look alike come from different tables or passages of the source.
Tests used:
Cx50 GJ channels = Cx50 GJ channels (Mus musculus, UniProt P28236); format: cell-based; settings: for effect on Cx50 junctional current: 10 μM; for IC50 Cx50 (μM): Table A1, alcohols, amines, nitriles and ureas; for Hill slope / Hill coefficient of Cx50 inhibition: fit to the Hill equation
hKCa3.1 = hKCa3.1 (Homo sapiens, UniProt O15554); assay: KCa3.1 current, whole-cell patch-clamp; format: cell-based
Cx26 GJ channels = Cx26 GJ channels (Rattus norvegicus, UniProt P21994); assay: Cx26 junctional current, dual whole-cell voltage-clamp in N2A cells; format: cell-based; settings: 10 μM
Cx32 GJ channels = Cx32 GJ channels (Rattus norvegicus, UniProt P08033); assay: Cx32 junctional current, dual whole-cell voltage-clamp in N2A cells; format: cell-based; settings: 10 μM
Chain of Cx32 GJ channels (P08033 whole entry): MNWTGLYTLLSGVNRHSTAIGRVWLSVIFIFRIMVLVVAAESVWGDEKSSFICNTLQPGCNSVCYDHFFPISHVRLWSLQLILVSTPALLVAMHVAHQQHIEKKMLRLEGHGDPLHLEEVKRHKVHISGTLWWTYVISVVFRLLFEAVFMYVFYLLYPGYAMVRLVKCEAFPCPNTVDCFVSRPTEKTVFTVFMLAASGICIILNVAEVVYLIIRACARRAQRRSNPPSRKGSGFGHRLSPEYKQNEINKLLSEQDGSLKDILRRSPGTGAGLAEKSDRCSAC

[1] = biological target: Cx45 gap junction channels (Homo sapiens, UniProt P36383); assay: Cx45 junctional current, dual whole-cell voltage-clamp; format: cell-based; settings: 10 μM
Chain of Cx45 gap junction channels (P36383 whole entry): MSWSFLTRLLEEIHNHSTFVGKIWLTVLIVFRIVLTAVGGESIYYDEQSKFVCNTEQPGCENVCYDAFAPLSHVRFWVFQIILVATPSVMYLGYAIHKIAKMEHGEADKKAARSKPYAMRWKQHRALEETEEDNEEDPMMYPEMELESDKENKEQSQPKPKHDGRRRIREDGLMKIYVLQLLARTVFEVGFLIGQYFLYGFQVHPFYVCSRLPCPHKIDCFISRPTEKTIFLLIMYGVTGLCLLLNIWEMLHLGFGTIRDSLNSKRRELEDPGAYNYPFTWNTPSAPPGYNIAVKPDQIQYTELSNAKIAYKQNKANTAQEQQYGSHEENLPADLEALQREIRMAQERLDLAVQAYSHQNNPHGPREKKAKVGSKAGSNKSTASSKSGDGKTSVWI

Kv1.1 = Kv1.1 (Mus musculus, UniProt P16388); assay: Kv1.1 current, whole-cell patch-clamp; format: cell-based; settings: read-out: Percentage of current inhibition, Kv1.1
Chain of Kv1.1 (P16388 whole entry): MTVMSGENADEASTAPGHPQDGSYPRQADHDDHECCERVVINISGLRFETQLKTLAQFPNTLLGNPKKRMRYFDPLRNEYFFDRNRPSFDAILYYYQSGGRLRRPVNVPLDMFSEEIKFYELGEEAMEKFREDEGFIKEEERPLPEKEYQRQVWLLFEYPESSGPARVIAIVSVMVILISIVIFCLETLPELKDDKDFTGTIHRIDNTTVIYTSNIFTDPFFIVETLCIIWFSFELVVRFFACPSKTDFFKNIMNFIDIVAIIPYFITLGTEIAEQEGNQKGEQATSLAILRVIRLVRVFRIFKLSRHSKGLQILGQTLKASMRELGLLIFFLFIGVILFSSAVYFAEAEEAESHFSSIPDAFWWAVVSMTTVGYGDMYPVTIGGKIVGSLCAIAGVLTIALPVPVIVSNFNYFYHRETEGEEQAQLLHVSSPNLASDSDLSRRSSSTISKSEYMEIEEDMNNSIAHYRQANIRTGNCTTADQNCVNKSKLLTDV

Kv1.3 = Kv1.3 (Mus musculus, UniProt P16390); assay: Kv1.3 current, whole-cell patch-clamp; format: cell-based; settings: read-out: Percentage of current inhibition, Kv1.3
Chain of Kv1.3 (P16390 whole entry): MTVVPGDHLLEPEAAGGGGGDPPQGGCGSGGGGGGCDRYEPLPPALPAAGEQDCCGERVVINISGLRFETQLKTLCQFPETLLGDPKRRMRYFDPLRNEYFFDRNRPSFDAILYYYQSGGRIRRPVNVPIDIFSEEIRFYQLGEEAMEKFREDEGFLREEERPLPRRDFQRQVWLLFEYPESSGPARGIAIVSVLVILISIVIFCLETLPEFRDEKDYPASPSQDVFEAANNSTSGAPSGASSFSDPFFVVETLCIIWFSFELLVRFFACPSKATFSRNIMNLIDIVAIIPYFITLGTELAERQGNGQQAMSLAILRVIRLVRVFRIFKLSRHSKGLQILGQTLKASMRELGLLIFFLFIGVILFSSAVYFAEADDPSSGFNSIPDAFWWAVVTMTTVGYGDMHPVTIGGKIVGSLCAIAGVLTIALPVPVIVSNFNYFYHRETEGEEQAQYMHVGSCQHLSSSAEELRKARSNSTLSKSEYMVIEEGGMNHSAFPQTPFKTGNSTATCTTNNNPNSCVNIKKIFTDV

Kv2.1 = Kv2.1 (Homo sapiens, UniProt Q14721); assay: Kv2.1 current, whole-cell patch-clamp; format: cell-based; settings: read-out: Percentage of current inhibition, Kv2.1
Kv3.1 = Kv3.1 (Mus musculus, UniProt P15388); assay: Kv3.1 current, whole-cell patch-clamp; format: cell-based; settings: read-out: Percentage of current inhibition, Kv3.1
Chain of Kv3.1 (P15388 whole entry): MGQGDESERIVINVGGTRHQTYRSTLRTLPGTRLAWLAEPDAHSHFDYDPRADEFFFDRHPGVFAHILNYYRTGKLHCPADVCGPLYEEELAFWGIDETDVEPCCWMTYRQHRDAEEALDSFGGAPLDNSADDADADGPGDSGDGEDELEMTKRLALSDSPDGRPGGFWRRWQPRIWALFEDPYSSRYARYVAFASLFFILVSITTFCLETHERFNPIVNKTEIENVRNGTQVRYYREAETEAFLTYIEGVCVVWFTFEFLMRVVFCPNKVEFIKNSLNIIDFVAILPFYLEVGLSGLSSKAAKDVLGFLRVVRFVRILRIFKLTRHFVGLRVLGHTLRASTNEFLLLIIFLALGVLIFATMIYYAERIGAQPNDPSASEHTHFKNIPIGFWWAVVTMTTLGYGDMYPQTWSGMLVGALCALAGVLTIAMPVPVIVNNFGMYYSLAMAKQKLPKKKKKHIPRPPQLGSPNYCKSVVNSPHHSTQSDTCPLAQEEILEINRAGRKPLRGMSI

Kv4.2 = Kv4.2 (Rattus norvegicus, UniProt Q63881); assay: Kv4.2 current, whole-cell patch-clamp; format: cell-based; settings: read-out: Percentage of current inhibition, Kv4.2
Chain of Kv4.2 (Q63881 whole entry): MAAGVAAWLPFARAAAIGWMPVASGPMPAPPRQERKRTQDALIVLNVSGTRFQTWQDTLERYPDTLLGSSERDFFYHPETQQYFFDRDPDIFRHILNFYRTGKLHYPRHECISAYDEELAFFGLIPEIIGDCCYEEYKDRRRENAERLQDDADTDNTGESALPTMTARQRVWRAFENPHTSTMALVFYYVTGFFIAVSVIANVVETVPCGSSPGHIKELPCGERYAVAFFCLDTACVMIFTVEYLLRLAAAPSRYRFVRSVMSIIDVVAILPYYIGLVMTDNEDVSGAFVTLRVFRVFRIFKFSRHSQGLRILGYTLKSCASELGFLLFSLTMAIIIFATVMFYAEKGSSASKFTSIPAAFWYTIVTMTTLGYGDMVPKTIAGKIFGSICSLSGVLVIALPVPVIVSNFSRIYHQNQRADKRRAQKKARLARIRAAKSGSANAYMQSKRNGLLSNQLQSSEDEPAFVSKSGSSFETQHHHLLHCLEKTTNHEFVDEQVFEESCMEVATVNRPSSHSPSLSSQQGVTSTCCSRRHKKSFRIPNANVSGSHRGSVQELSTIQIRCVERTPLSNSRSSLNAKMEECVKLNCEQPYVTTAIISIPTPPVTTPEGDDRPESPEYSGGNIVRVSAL

Kv7.2/7.3 = Kv7.2/7.3 (Homo sapiens, UniProt O43525+O43526); assay: Kv7.2/7.3 current, whole-cell patch-clamp; format: cell-based; settings: 10 μM
Kv11.1 (hERG) = Kv11.1 (hERG) (Homo sapiens, UniProt Q12809); assay: Kv11.1; format: cell-based; settings: HEK-293 cells stably expressing Kv11.1 (hERG)
Chain of Kv11.1 (hERG) (Q12809 whole entry): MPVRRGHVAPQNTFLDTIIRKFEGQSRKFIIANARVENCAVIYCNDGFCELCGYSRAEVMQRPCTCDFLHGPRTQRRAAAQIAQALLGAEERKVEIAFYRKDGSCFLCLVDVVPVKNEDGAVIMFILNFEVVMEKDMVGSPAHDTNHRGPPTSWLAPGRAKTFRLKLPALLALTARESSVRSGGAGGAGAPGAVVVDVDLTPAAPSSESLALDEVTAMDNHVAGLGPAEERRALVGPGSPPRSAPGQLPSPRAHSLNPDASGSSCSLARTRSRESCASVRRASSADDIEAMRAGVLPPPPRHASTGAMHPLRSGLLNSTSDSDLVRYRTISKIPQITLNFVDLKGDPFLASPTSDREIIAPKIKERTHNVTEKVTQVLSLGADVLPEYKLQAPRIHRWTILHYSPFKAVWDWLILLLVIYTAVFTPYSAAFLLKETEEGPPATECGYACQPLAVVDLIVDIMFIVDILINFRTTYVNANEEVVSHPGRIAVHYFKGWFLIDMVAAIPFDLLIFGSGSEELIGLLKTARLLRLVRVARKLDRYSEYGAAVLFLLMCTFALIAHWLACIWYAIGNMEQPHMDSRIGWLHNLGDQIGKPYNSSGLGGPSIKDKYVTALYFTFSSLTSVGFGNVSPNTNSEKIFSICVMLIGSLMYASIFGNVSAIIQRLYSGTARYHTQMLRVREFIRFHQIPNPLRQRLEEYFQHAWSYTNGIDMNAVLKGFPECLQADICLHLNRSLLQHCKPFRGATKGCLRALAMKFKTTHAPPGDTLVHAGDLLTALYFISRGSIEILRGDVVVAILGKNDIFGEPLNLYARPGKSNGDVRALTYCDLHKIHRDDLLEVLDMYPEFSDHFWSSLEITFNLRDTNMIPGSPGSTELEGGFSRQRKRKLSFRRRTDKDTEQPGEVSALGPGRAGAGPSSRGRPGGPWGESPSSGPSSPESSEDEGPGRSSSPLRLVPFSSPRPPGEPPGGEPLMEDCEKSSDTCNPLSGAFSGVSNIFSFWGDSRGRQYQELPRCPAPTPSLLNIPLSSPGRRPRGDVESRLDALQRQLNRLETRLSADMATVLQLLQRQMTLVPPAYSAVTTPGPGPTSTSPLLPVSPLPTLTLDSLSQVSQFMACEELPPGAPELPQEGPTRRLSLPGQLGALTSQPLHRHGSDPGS

KCa2.3 = KCa2.3 current, whole-cell patch-clamp; format: cell-based, human; settings: 10 μM
KCa1.1 (BK) = KCa1.1 (BK) (Homo sapiens, UniProt Q12791); assay: KCa1.1; format: cell-based; settings: read-out: Percentage of current inhibition, KCa1.1 (BK)
Nav1.2 = Nav1.2 (Mus musculus, UniProt B1AWN6); assay: Nav1.2 current in N1E-115 cells, whole-cell patch-clamp; format: cell-based; settings: N1E-115, read-out: Percentage of current inhibition, Nav1.2
Nav1.4 = Nav1.4 (Homo sapiens, UniProt P35499); assay: Nav1.4 current, whole-cell patch-clamp; format: cell-based; settings: 10 μM
sodium channels = assay: Summary of block of the tested sodium channels; format: cell-based; settings: 10 μM; summary in discussion
potassium channels = assay: Summary of block of the tested potassium channels; format: cell-based; settings: 10 μM; summary in discussion
[2] = test system: primary lens epithelial cells; assay: Junctional currents between primary lens epithelial cells; format: cell-based, mouse; settings: 10 μM; for reduction of junctional currents in lens epithelial cells, % of the initial conductance: mouse lenses postnatal day 6, means ± SEM
Cx26 hemichannel = settings: read-out: IC50, Cx26 hemichannel currents; Xenopus oocytes; literature value; cited from earlier work
Cx38 hemichannel = settings: read-out: IC50, Cx38 hemichannel currents; Xenopus oocytes; literature value; cited from earlier work
[3] = biological target: 11β-hydroxysteroid dehydrogenase; settings: read-out: IC50, 11β-hydroxysteroid dehydrogenase; ref Monder et al., 1989; cited from earlier work
[4] = test system: voltage-gated Ca^2+ currents; settings: read-out: IC50, voltage-gated Ca2+ currents; ref Vessey et al., 2004; cited from earlier work
pannexin channels = settings: read-out: IC50, pannexin channels; ref Locovei et al., 2007; cited from earlier work
P2x7 receptors = settings: read-out: IC50, P2x7 receptors; ref Suadicani et al., 2006; cited from earlier work
[5] = IC50 KCa3.1, Table 1, mean ± SD

Chain of Cx50 GJ channels (P28236 whole entry): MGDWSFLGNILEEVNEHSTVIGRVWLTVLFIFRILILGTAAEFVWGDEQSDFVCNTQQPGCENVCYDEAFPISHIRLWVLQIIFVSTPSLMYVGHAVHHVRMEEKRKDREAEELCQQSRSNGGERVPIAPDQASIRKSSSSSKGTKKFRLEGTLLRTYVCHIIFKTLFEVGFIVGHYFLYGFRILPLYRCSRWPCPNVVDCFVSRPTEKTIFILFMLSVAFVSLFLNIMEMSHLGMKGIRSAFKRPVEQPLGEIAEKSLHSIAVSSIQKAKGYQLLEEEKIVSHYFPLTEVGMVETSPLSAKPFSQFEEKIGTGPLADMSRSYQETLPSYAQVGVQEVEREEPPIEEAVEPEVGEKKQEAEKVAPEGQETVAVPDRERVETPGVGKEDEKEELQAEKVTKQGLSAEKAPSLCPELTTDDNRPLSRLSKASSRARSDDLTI
Chain of hKCa3.1 (O15554 whole entry): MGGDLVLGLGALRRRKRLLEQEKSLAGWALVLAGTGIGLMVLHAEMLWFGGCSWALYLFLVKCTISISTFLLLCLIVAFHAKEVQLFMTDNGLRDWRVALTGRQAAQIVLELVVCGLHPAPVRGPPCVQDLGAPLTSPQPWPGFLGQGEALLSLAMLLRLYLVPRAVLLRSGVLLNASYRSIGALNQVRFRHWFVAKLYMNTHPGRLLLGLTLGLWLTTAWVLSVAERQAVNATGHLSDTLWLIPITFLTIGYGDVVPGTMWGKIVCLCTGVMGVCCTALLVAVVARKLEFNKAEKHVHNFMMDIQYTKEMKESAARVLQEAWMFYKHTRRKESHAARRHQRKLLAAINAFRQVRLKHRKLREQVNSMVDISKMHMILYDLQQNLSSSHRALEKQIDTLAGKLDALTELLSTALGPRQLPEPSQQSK

Compound: FC(F)(F)Oc1ccc(NC(c2ccccc2)(c2ccccc2)c2ccccc2Cl)cc1 [T150, N-[(2-Chlorophenyl)diphenylmethyl]-4-(trifluoromethoxy)aniline]
- effect on Cx50 junctional current (Cx50 GJ channels): no effect

Compound: Clc1ccccc1C(Nc1ccccc1)(c1ccccc1)c1ccccc1 [T109, N-[(2-Chlorophenyl)diphenylmethyl]aniline]
- effect on Cx50 junctional current (Cx50 GJ channels): no effect

Compound: COc1ccccc1C(O)(c1ccccc1)c1ccccc1 [T117, (2-Methoxyphenyl)diphenylmethanol]
- IC50 Cx50 (μM) (Cx50 GJ channels): No effect

Compound: FC(F)(F)Oc1cccc(NC(c2ccccc2)(c2ccccc2)c2ccccc2Cl)c1 [T102, N-[(2-Chlorophenyl)diphenylmethyl]-3-(trifluoromethoxy)aniline]
- effect on Cx50 junctional current (Cx50 GJ channels): no effect

Compound: Nc1ccccc1C(O)(c1ccccc1)c1ccccc1 [T154-OH, (2-Aminophenyl)diphenylmethanol]
- IC50 Cx50 (μM) (Cx50 GJ channels): No effect

Compound: O=c1c(O)c(-c2ccc(O)c(O)c2)oc2cc(O)cc(O)c12 [quercetin, reference compound]
- effect on Cx50 junctional current (Cx50 GJ channels): no effect

Compound: Clc1ccccc1C(Oc1ccccc1)(c1ccccc1)c1ccccc1 [T107, 1-Chloro-2-(phenoxydiphenylmethyl)benzene]
- effect on Cx50 junctional current (Cx50 GJ channels): no effect

Compound: O=C(O)CC(c1ccccc1)(c1ccccc1)c1ccccc1 [T51, 3,3,3-triphenylpropionic acid]
- IC50 Cx50 (μM) (Cx50 GJ channels): No effect
- IC50 (hKCa3.1; IC50 KCa3.1 (μM), Table A1): 25 µM

Compound: OC(c1ccccc1)(c1ccccc1)c1cccc(Cl)c1 [T2, (3-Chlorophenyl)diphenylmethanol]
- IC50 (Cx50 GJ channels): 3.6 µM
- IC50 (hKCa3.1; IC50 KCa3.1 (μM), Table A1): 0.55 µM

Compound: c1ccc(C(c2ccccc2)c2ccncc2)cc1 [T160, diphenyl-4-pyridylmethane]
- IC50 (Cx50 GJ channels): 4 µM
- IC50 (hKCa3.1): 8.6 µM

Compound: Ic1ccccc1C(Nc1nccs1)(c1ccccc1)c1ccccc1 [T136, N-[(2-Iodophenyl)diphenylmethyl]-1,3-thiazol-2-amine]
- IC50 (Cx50 GJ channels): 2.4 µM
- selectivity over other connexins as well as major neuronal and cardiac voltage-gated K+ and Na+ channels (Cx50 GJ channels): at least 10 fold
- Hill slope / Hill coefficient of Cx50 inhibition (Cx50 GJ channels): 1.7
- IC50 (hKCa3.1; [5]): 1.3 µM
- inhibition of Cx26 GJ channel current / reduction of junction conductance (Cx26 GJ channels): no significant effect
- inhibition of Cx32 GJ channel current / reduction of junction conductance (Cx32 GJ channels): no significant effect
- effect on Cx45 gap junction channels [1]: no significant effect
- inhibition at 10 µM (Kv1.1): 28 ± 9%
- inhibition at 10 µM (Kv1.3): 18 ± 4%
- inhibition at 10 µM (Kv2.1): 28 ± 4%
- inhibition at 10 µM (Kv3.1): 37 ± 16%
- inhibition at 10 µM (Kv4.2): 15 ± 3%
- Percentage of current inhibition, Kv7.2/7.3 (Kv7.2/7.3): No effect (n = 2)
- inhibition at 10 µM (Kv11.1 (hERG)): 27 ± 4%
- Percentage of current inhibition, KCa2.3 (KCa2.3): No effect (n = 3)
- inhibition at 10 µM (KCa1.1 (BK)): 26 ± 2%
- inhibition at 10 µM (Nav1.2): 9 ± 0.5%
- Percentage of current inhibition, Nav1.4 (Nav1.4): No effect (n = 3)
- inhibition of sodium channels (sodium channels): < 11%
- inhibition of most of the tested potassium channels (potassium channels): 18–43%
- reversibility of reduction of junctional currents on washout [2]: reversible
- reduction of junctional currents in lens epithelial cells, % of the initial conductance [2]: 64 ± 8%

Compound: CC1(C)[C@@H](OC(=O)CCC(=O)O)CC[C@]2(C)[C@H]3C(=O)C=C4[C@@H]5C[C@@](C)(C(=O)O)CC[C@]5(C)CC[C@@]4(C)[C@]3(C)CC[C@@H]12 [carbenoxolone]
- IC50 (Cx26 hemichannel): 21 µM
- IC50 (Cx38 hemichannel): 34 µM
- IC50 [3]: ~5 µM
- IC50 [4]: 48 µM
- IC50 (pannexin channels): 2 to 5 µM
- IC50 (P2x7 receptors): 0.175 µM

Compound: OC(c1ccccc1)(c1ccccc1)c1ccc(Cl)cc1 [T1, (4-Chlorophenyl)diphenylmethanol]
- IC50 (Cx50 GJ channels): 2.8 µM
- IC50 (hKCa3.1; IC50 KCa3.1 (μM), Table A1): 0.53 µM

Compound: COc1ccccc1C(O)(c1ccccc1)c1ccccc1OC [T165, Bis-(2-methoxyphenyl)(phenyl)methanol]
- IC50 Cx50 (μM) (Cx50 GJ channels): No effect

Compound: COc1ccccc1C(Nc1nccs1)(c1ccccc1)c1ccccc1 [T122, N-[(2-Methoxyphenyl)diphenylmethyl]-1,3-thiazol-2-amine]
- IC50 (Cx50 GJ channels): 1.2 µM
- selectivity over other connexins as well as major neuronal and cardiac voltage-gated K+ and Na+ channels (Cx50 GJ channels): at least 10 fold
- Hill slope / Hill coefficient of Cx50 inhibition (Cx50 GJ channels): 1.6
- IC50 (hKCa3.1; [5]): 10.2 µM
- IC50 (hKCa3.1; IC50 KCa3.1, running text): 10 µM
- inhibition of Cx26 GJ channel current / reduction of junction conductance (Cx26 GJ channels): no significant effect
- inhibition of Cx32 GJ channel current / reduction of junction conductance (Cx32 GJ channels): no significant effect
- effect on Cx45 gap junction channels [1]: no significant effect
- inhibition at 10 µM (Kv1.1): 65 ± 10%
- inhibition at 10 µM (Kv1.3): 52 ± 2%
- inhibition at 10 µM (Kv2.1): 28 ± 4%
- inhibition at 10 µM (Kv3.1): 32 ± 12%
- inhibition at 10 µM (Kv4.2): 16 ± 4%
- Percentage of current inhibition, Kv7.2/7.3 (Kv7.2/7.3): No effect (n = 3)
- inhibition at 10 µM (Kv11.1 (hERG)): 42 ± 3%
- Percentage of current inhibition, KCa2.3 (KCa2.3): No effect (n = 3)
- inhibition at 10 µM (KCa1.1 (BK)): 43 ± 4%
- inhibition at 10 µM (Nav1.2): 11 ± 1%
- Percentage of current inhibition, Nav1.4 (Nav1.4): No effect (n = 3)
- inhibition of sodium channels (sodium channels): < 11%
- inhibition of most of the tested potassium channels (potassium channels): 18–43%
- reversibility of reduction of junctional currents on washout [2]: reversible
- reduction of junctional currents in lens epithelial cells, % of the initial conductance [2]: 67 ± 9%

Compound: OC(c1ccccc1)(c1ccccc1)c1ccccc1 [Triphenylmethanol, triphenylmethanol]
- IC50 (Cx50 GJ channels): 1 µM
- IC50 (hKCa3.1; IC50 KCa3.1 (μM), Table A1): 0.5 µM

Compound: COc1ccc(CCN2CCC(Nc3nc4ccccc4n3Cc3ccc(F)cc3)CC2)cc1 [Astemizole, reference compound]
- reversibility of inhibition of Cx50 junctional currents upon washout (Cx50 GJ channels): completely reversible
- effect on Cx50 junctional current (Cx50 GJ channels): significant inhibition

Compound: FC(F)(F)Oc1ccccc1NC(c1ccccc1)(c1ccccc1)c1ccccc1Cl [T104, N-[(2-Chlorophenyl)diphenylmethyl]-2-(trifluoromethoxy)aniline]
- effect on Cx50 junctional current (Cx50 GJ channels): no effect

Compound: C[C@@H]1O[C@@H](OC[C@H]2O[C@@H](Oc3c(-c4ccc(O)c(O)c4)oc4cc(O)cc(O)c4c3=O)[C@H](O)[C@@H](O)[C@@H]2O)[C@H](O)[C@H](O)[C@H]1O [rutin, reference compound]
- reversibility of inhibition of Cx50 junctional currents upon washout (Cx50 GJ channels): only partially reversible
- effect on Cx50 junctional current (Cx50 GJ channels): significant inhibition

Compound: COc1ccc(NC(c2ccccc2)(c2ccccc2)c2ccccc2Cl)cc1 [T106, N-[(2-Chlorophenyl)diphenylmethyl]-4-methoxyaniline]
- IC50 (Cx50 GJ channels): 10 µM

Compound: c1ccc(C(c2ccccc2)c2ccccc2)cc1 [Triphenylmethane, triphenylmethane]
- IC50 (Cx50 GJ channels): 0.9 µM
- IC50 (hKCa3.1; IC50 KCa3.1 (μM), Table A1): 3.7 µM

Compound: OC(c1ccccc1)(c1ccccc1)c1ccncc1 [T50, diphenyl-4-pyridylmethanol]
- IC50 (Cx50 GJ channels): 10 µM
- IC50 (hKCa3.1): > 50 µM
